Test results: patent publication US20240043404A1 (AbbVie Inc., priority 2009, published 2024)

Tested on: RS4;11 cells
Assay: RS4;11 cell viability assay (CellTiter Glo);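 further: acute lymphoblastic leukemia line RS4,11, EC50 derived from percentage of viable cells after treatment relative to untreated controls, cell killing taken as a measure of Bcl-2 inhibition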
Assay type: cell-based, human
Conditions: Homo sapiens, RS4-11, 48 h, 50,000 cells per well, 10% human serum, 48 hours; read-out: RS4; 11 EC50 Values
Description: The acute lymphoblastic leukemia (ALL) cell line RS4;11 was used as the primary human cell line to assess the cellular activity of Bcl-2 selective agents in vitro and their efficacy in vivo.
Cell cytotoxicity EC50 values were assessed using CellTiter Glo (Promega) according to the manufacturer's recommendations. The EC50 values were determined as a percentage of viable cells following treatment compared to the untreated control cells.

Structure (SMILES) | EC50 [µM]
CC1(C)CCC(CN2CCN(c3ccc(C(=O)NS(=O)(=O)c4cnc(OC[C@H]5CC[C@H](O)CC5)c(Cl)c4)c(Oc4cnc5[nH]ccc5c4)c3)CC2)=C(c2ccc(Cl)cc2)C1 [Example 298, N-({5-chloro-6-[(trans-4-hydroxycyclohexyl)methoxy]pyridin-3-yl}sulfonyl)-4-(4-{[2-(4-chlorophenyl)-4,4-dimethylcyclohex-1-en-1-yl]methyl}piperazin-1-yl)-2-(1H-pyrrolo[2,3-b]pyridin-5-yloxy)benzamide] | 0.0703
CC(=O)N[C@H]1CC[C@H](Nc2ccc(S(=O)(=O)NC(=O)c3ccc(N4CCN(CC5=C(c6ccc(Cl)cc6)CC(C)(C)CC5)CC4)cc3Oc3cnc4[nH]ccc4c3)cc2[N+](=O)[O-])CC1 [Example 179, Trans-N-[(4-{[4-(acetylamino)cyclohexyl]amino}-3-nitrophenyl)sulfonyl]-4-(4-{[2-(4-chlorophenyl)-4,4-dimethylcyclohex-1-en-1-yl]methyl}piperazin-1-yl)-2-(1H-pyrrolo[2,3-b]pyridin-5-yloxy)benzamide] | 0.0427
CC1(C)CCC(CN2CCN(c3ccc(C(=O)NS(=O)(=O)c4cnc(NCC5(F)CCOCC5)c(Cl)c4)c(Oc4cnc5[nH]ccc5c4)c3)CC2)=C(c2ccc(Cl)cc2)C1 [Example 242, N-[(5-chloro-6-{[(4-fluorotetrahydro-2H-pyran-4-yl)methyl]amino}pyridin-3-yl)sulfonyl]-4-(4-{[2-(4-chlorophenyl)-4,4-dimethylcyclohex-1-en-1-yl]methyl}piperazin-1-yl)-2-(1H-pyrrolo[2,3-b]pyridin-5-yloxy)benzamide] | 0.223
CC1(C)CCC(CN2CCN(c3ccc(C(=O)NS(=O)(=O)c4ccc(NCC5CCC(C)(C#N)CC5)c([N+](=O)[O-])c4)c(Oc4cnc5[nH]ccc5c4)c3)CC2)=C(c2ccc(Cl)cc2)C1 (stereo not drawn) [Example 366, 4-(4-{[2-(4-chlorophenyl)-4,4-dimethylcyclohex-1-en-1-yl]methyl}piperazin-1-yl)-N-[(4-{[(4-cyano-4-methylcyclohexyl)methyl]amino}-3-nitrophenyl)sulfonyl]-2-(1H-pyrrolo[2,3-b]pyridin-5-yloxy)benzamide] | 0.0165
CCN1CCOCC1COc1ccc(S(=O)(=O)NC(=O)c2ccc(N3CCN(CC4=C(c5ccc(Cl)cc5)CC(C)(C)CC4)CC3)cc2Oc2cnc3[nH]ccc3c2)cc1[N+](=O)[O-] (stereo not drawn) [Example 103, 4-(4-{[2-(4-chlorophenyl)-4,4-dimethylcyclohex-1-en-1-yl]methyl}piperazin-1-yl)-N-({4-[(4-ethylmorpholin-3-yl)methoxy]-3-nitrophenyl}sulfonyl)-2-(1H-pyrrolo[2,3-b]pyridin-5-yloxy)benzamide] | 0.0392
CC1(C)CCC(CN2CCN(c3ccc(C(=O)NS(=O)(=O)c4cnc(OC[C@H]5CN(CC#N)CCO5)c(Cl)c4)c(Oc4cnc5[nH]ccc5c4)c3)CC2)=C(c2ccc(Cl)cc2)C1 [Example 246, N-[(5-chloro-6-{[(2R)-4-(cyanomethyl)morpholin-2-yl]methoxy}pyridin-3-yl)sulfonyl]-4-(4-{[2-(4-chlorophenyl)-4,4-dimethylcyclohex-1-en-1-yl]methyl}piperazin-1-yl)-2-(1H-pyrrolo[2,3-b]pyridin-5-yloxy)benzamide] | 0.402
CC1(C)CCC(CN2CCN(c3ccc(C(=O)NS(=O)(=O)c4cnc(OCC5(F)CCN(C(CF)CF)CC5)c(C(F)(F)F)c4)c(Oc4cnc5[nH]ccc5c4)c3)CC2)=C(c2ccc(Cl)cc2)C1 [Example 288, 4-(4-{[2-(4-chlorophenyl)-4,4-dimethylcyclohex-1-en-1-yl]methyl}piperazin-1-yl)-N-{[6-{[1-(1,3-difluoropropan-2-yl)-4-fluoropiperidin-4-yl]methoxy}-5-(trifluoromethyl)pyridin-3-yl]sulfonyl}-2-(1H-pyrrolo[2,3-b]pyridin-5-yloxy)benzamide] | 0.39
CC1(C)CCC(CN2CCN(c3ccc(C(=O)NS(=O)(=O)c4cc(F)c(NCC5CCOCC5)cc4Cl)c(Oc4cnc5[nH]ccc5c4)c3)CC2)=C(c2ccc(Cl)cc2)C1 [Example 54, N-({2-chloro-5-fluoro-4-[(tetrahydro-2H-pyran-4-ylmethyl)amino]phenyl}sulfonyl)-4-(4-{[2-(4-chlorophenyl)-4,4-dimethylcyclohex-1-en-1-yl]methyl}piperazin-1-yl)-2-(1H-pyrrolo[2,3-b]pyridin-5-yloxy)benzamide] | 1.92
CC1(C)CCC(CN2CCN(c3ccc(C(=O)NS(=O)(=O)c4ccc(OCC5CN(C6CC6)CCO5)c([N+](=O)[O-])c4)c(Oc4cnc5[nH]ccc5c4)c3)CC2)=C(c2ccc(Cl)cc2)C1 (stereo not drawn) [Example 354, 4-(4-{[2-(4-chlorophenyl)-4,4-dimethylcyclohex-1-en-1-yl]methyl}piperazin-1-yl)-N-({4-[(4-cyclopropylmorpholin-2-yl)methoxy]-3-nitrophenyl}sulfonyl)-2-(1H-pyrrolo[2,3-b]pyridin-5-yloxy)benzamide] | 0.0532
CC1(C)CCC(CN2CCN(c3ccc(C(=O)NS(=O)(=O)c4cnc(OCC5CCOCC5)c(C(F)(F)F)c4)c(Oc4cnc5[nH]ccc5c4)c3)CC2)=C(c2ccc(Cl)cc2)C1 [Example 297, 4-(4-{[2-(4-chlorophenyl)-4,4-dimethylcyclohex-1-en-1-yl]methyl}piperazin-1-yl)-2-(1H-pyrrolo[2,3-b]pyridin-5-yloxy)-N-{[6-(tetrahydro-2H-pyran-4-ylmethoxy)-5-(trifluoromethyl)pyridin-3-yl]sulfonyl}benzamide] | 0.592
COC(=O)N1CCOC(CNc2ccc(S(=O)(=O)NC(=O)c3ccc(N4CCN(CC5=C(c6ccc(Cl)cc6)CC(C)(C)CC5)CC4)cc3Oc3cnc4[nH]ccc4c3)cc2[N+](=O)[O-])C1 (stereo not drawn) [Example 317, methyl 2-{[(4-{[4-(4-{[2-(4-chlorophenyl)-4,4-dimethylcyclohex-1-en-1-yl]methyl}piperazin-1-yl)-2-(1H-pyrrolo[2,3-b]pyridin-5-yloxy)benzoyl]sulfamoyl}-2-nitrophenyl)amino]methyl}morpholine-4-carboxylate] | 0.0133
CC1(C)CC(c2ccc(Cl)cc2)=C(CN2CCN(c3ccc(C(=O)NS(=O)(=O)c4ccc(OCC5COCCO5)c([N+](=O)[O-])c4)c(Oc4cnc5[nH]ccc5c4)c3)CC2)CO1 (stereo not drawn) [Example 32, 4-(4-{[4-(4-chlorophenyl)-6,6-dimethyl-5,6-dihydro-2H-pyran-3-yl]methyl}piperazin-1-yl)-N-{[4-(1,4-dioxan-2-ylmethoxy)-3-nitrophenyl]sulfonyl}-2-(1H-pyrrolo[2,3-b]pyridin-5-yloxy)benzamide] | 0.0815

More lines, now with the values ahead:

EC50 [µM] | Structure (SMILES)
0.0129 | CC1(C)CCC(CN2CCN(c3ccc(C(=O)NS(=O)(=O)c4ccc(NC[C@H]5CCN(C6CCOCC6)C5)c([N+](=O)[O-])c4)c(Oc4cnc5[nH]ccc5c4)c3)CC2)=C(c2ccc(Cl)cc2)C1 [Example 118, 4-(4-{[2-(4-chlorophenyl)-4,4-dimethylcyclohex-1-en-1-yl]methyl}piperazin-1-yl)-N-{[3-nitro-4-({[(3R)-1-tetrahydro-2H-pyran-4-ylpyrrolidin-3-yl]methyl}amino)phenyl]sulfonyl}-2-(1H-pyrrolo[2,3-b]pyridin-5-yloxy)benzamide]
0.013 | CC1(C)CCC(CN2CCN(c3ccc(C(=O)NS(=O)(=O)c4ccc(NCC5CN(C6COC6)C5)c([N+](=O)[O-])c4)c(Oc4cnc5[nH]ccc5c4)c3)CC2)=C(c2ccc(Cl)cc2)C1 [Example 162, 4-(4-{[2-(4-chlorophenyl)-4,4-dimethylcyclohex-1-en-1-yl]methyl}piperazin-1-yl)-N-[(3-nitro-4-{[(1-oxetan-3-ylazetidin-3-yl)methyl]amino}phenyl)sulfonyl]-2-(1H-pyrrolo[2,3-b]pyridin-5-yloxy)benzamide]
0.0051 | CC1(C)CCC(CN2CCN(c3ccc(C(=O)NS(=O)(=O)c4ccc(NCC5CN(CCF)CCO5)c([N+](=O)[O-])c4)c(Oc4cnc5[nH]ccc5c4)c3)CC2)=C(c2ccc(Cl)cc2)C1 (stereo not drawn) [Example 165, 4-(4-{[2-(4-chlorophenyl)-4,4-dimethylcyclohex-1-en-1-yl]methyl}piperazin-1-yl)-N-{[4-({[4-(2-fluoroethyl)morpholin-2-yl]methyl}amino)-3-nitrophenyl]sulfonyl}-2-(1H-pyrrolo[2,3-b]pyridin-5-yloxy)benzamide]
0.0118 | CC1(C)CCC(CN2CCN(c3ccc(C(=O)NS(=O)(=O)c4ccc(NC5CCN([C@H]6CCOC[C@H]6F)CC5)c([N+](=O)[O-])c4)c(Oc4cnc5[nH]ccc5c4)c3)CC2)=C(c2ccc(Cl)cc2)C1 (relative stereo) [Example 115, 4-(4-{[2-(4-chlorophenyl)-4,4-dimethylcyclohex-1-en-1-yl]methyl}piperazin-1-yl)-N-{[4-({1-[cis-3-fluorotetrahydro-2H-pyran-4-yl]piperidin-4-yl}amino)-3-nitrophenyl]sulfonyl}-2-(1H-pyrrolo[2,3-b]pyridin-5-yloxy)benzamide]
0.00711 | CC1(C)CC(c2ccc(Cl)cc2)=C(CN2CCN(c3ccc(C(=O)NS(=O)(=O)c4ccc(N[C@H]5CC[C@H](N6CCOCC6)CC5)c([N+](=O)[O-])c4)c(Oc4cnc5[nH]ccc5c4)c3)CC2)CO1 [Example 33, Trans-4-(4-{[4-(4-chlorophenyl)-6,6-dimethyl-5,6-dihydro-2H-pyran-3-yl]methyl}piperazin-1-yl)-N-({4-[(4-morpholin-4-ylcyclohexyl)amino]-3-nitrophenyl}sulfonyl)-2-(1H-pyrrolo[2,3-b]pyridin-5-yloxy)benzamide]
0.00252 | CN(C)CC(=O)N1CCC(F)(COc2ncc(S(=O)(=O)NC(=O)c3ccc(N4CCN(CC5=C(c6ccc(Cl)cc6)CC(C)(C)CC5)CC4)cc3Oc3cnc4[nH]ccc4c3)cc2Cl)CC1 [Example 270, N-[(5-chloro-6-{[1-(N,N-dimethylglycyl)-4-fluoropiperidin-4-yl]methoxy}pyridin-3-yl)sulfonyl]-4-(4-{[2-(4-chlorophenyl)-4,4-dimethylcyclohex-1-en-1-yl]methyl}piperazin-1-yl)-2-(1H-pyrrolo[2,3-b]pyridin-5-yloxy)benzamide]
